Activity calls are given as the source filed them.

The target of test [1] is DNA repair and recombination protein RAD54-like (Homo sapiens, UniProt Q92698). Description: RAD54 Holliday junction migration blockers – biochemical, fluorescence, cherry-picked samples, dose series, confirmation (AID 651657). Format: functional.
In another test the target is Cytochrome P450 2C9 (Homo sapiens, UniProt P11712).
Test [2] concerns the target Photoreceptor-specific nuclear receptor (Homo sapiens, UniProt Q9Y5X4). Format: functional, cell-based.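 Further: CHO-S cells with Gal4-NCOR and VP16-NR2E3 two-hybrid luciferase reporter.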
In another test the target is Cytochrome P450 2C19 (Homo sapiens, UniProt P33261). The experiment in a line: Cytochrome panel assay with activity outcomes. Panel member name: p450-cyp2c19 Compounds with AC50 equal or less than 10 uM are considered active. In kind it is functional. The following applies: read-out: AC50.
Sequence of Cytochrome P450 2C19 (P33261 whole entry): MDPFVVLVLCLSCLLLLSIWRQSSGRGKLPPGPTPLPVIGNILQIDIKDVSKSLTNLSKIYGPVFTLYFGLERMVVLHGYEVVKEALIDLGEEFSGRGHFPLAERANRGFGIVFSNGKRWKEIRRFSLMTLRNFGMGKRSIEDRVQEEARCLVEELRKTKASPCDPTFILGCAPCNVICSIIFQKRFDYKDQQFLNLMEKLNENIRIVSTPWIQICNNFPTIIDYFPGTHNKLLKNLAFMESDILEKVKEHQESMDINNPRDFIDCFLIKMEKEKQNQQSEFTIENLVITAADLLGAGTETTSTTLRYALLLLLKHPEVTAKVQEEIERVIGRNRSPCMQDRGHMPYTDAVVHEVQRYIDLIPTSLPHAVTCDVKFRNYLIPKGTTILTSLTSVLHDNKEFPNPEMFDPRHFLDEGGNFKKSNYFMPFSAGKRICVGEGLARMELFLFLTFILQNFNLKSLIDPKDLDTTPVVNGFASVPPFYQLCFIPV
A further test deals with Cytochrome P450 3A4 (Homo sapiens, UniProt P08684).
Sequence of Cytochrome P450 3A4 (P08684 whole entry, the tested form may be a part): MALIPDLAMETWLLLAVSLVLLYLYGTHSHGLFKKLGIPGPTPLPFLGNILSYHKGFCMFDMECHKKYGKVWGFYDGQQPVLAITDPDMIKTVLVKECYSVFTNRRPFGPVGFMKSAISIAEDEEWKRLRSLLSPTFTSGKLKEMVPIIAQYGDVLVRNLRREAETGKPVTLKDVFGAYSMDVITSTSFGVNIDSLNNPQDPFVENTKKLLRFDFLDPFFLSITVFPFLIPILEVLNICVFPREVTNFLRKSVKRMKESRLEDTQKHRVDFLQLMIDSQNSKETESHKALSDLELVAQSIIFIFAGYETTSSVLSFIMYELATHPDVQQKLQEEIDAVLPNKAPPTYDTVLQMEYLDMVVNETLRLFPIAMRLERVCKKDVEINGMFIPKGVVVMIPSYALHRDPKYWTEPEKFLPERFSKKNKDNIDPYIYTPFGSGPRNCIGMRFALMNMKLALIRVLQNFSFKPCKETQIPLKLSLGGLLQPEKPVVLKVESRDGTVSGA
In test [3] the target is T1, Sentrin-specific protease 1 (Homo sapiens, UniProt Q9P0U3). Description: Dose response confirmation of small molecule inhibitors of the catalytic domain of the SUMO protease, SENP1 in a FRET assay. In kind it is functional. The following applies: read-out: IC50_Mean.
T1 sequence (Q9P0U3 whole entry, the tested form may be a part): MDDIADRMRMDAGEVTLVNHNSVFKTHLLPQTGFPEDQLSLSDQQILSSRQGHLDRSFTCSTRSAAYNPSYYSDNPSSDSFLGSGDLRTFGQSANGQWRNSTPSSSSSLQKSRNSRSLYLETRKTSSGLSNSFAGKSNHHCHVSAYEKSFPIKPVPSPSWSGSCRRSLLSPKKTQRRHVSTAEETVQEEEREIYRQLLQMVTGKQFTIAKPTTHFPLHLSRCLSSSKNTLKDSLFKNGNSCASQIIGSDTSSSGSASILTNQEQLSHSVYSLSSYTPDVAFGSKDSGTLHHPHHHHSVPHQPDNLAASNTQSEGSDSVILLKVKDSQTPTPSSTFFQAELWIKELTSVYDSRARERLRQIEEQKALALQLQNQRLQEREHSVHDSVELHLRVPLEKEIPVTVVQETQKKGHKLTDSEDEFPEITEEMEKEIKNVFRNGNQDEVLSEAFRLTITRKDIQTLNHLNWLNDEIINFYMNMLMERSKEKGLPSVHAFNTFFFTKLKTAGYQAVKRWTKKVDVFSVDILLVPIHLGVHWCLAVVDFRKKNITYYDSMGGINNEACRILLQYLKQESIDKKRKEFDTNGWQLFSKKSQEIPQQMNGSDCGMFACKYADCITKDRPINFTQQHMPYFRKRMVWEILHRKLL
Test [4] has as its target T1, Sentrin-specific protease 1. The experiment in a line: SENP1 catalytic domain blockers, concentration series – biochemical, kinetic FRET, dose response (AID 651697). In kind it is functional. Conditions: read-out: IC50_Mean.
The target of test [5] is T2, Beta-lactamase (Pseudomonas aeruginosa, UniProt Q79MP6). The experiment in a line: inhibition of IMP-1 beta-lactamase activity – biochemical, epi-absorbance, selectivity assay for VIM-2 inhibitor project, dose response (AID 1920).
T2 sequence (Q79MP6 whole entry): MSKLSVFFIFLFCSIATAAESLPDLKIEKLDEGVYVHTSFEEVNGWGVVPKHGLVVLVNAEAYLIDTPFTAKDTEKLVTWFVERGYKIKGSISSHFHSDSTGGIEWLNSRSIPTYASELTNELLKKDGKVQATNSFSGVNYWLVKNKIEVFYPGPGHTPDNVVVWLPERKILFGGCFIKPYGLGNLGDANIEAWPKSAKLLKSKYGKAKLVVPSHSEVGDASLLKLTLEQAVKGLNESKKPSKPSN
Test [6] has as its target T2, Beta-lactamase. The experiment in a line: […] counterscreen for selective VIM-2 inhibitors: dose response biochemical high throughput screening assay to identify inhibitors of IMP-1 metallo-beta-lactamase.
The target in test [7] is T3, Beta Lactamase (Pseudomonas aeruginosa, UniProt Q932Y6). Description: concentration-dependent VIM-2 enzyme inhibition – biochemical, epi-absorbance readout, selective inhibitors, dose response (AID 1919).
T3 sequence (Q932Y6 whole entry): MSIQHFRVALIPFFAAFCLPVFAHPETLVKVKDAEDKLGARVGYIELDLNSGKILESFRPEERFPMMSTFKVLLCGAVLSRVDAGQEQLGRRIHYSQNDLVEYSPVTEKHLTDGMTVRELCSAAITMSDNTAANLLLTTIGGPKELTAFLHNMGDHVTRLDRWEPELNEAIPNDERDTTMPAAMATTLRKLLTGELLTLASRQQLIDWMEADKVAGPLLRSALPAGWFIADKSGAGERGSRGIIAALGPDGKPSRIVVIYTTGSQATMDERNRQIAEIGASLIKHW
For test [8], the target named is Beta-lactamase (Salmonella choleraesuis (strain SC-B67), UniProt Q5J463). The experiment in a line: Epi-absorbance-based counterscreen for selective VIM-2 inhibitors: dose response biochemical high throughput screening assay to identify inhibitors of TEM-1 serine-beta-lactamase. (In general: A counterscreen serves to expose hits that act by an unwanted route or on another target.)
Sequence of Beta-lactamase (Salmonella choleraesuis (strain SC-B67), UniProt Q5J463) (Q5J463 whole entry): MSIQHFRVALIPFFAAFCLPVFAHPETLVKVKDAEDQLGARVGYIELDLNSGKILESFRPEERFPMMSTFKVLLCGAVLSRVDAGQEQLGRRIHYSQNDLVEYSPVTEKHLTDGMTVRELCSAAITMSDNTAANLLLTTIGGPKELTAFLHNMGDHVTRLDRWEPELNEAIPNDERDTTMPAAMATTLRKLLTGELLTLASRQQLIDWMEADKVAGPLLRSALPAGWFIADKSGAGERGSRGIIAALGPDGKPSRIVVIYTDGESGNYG

The target in test [9] is T3, Beta Lactamase. The experiment in a line: VIM-2 CCF2 hydrolysis inhibition, assay artifact filter – biochemical, FRET readout, CCF2 substrate, artefact control for selective VIM-2 inhibitor project, dose response (AID 1926).

Sequence of Cytochrome P450 2C9 (P11712 whole entry, the tested form may be a part): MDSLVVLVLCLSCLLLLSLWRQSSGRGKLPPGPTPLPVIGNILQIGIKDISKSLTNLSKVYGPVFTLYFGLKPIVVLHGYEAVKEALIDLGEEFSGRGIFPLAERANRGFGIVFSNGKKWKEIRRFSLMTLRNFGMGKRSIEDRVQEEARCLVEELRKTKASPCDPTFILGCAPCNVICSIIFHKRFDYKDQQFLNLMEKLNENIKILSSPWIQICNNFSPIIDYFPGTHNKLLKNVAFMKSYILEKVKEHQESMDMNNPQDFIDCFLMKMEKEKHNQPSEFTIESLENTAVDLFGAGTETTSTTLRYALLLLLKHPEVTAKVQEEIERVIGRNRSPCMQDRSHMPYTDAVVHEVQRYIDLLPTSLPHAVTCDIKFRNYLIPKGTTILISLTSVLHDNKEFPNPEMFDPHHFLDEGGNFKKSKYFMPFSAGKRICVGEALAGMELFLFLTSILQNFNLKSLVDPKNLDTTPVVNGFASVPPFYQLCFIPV
Sequence of DNA repair and recombination protein RAD54-like (Q92698 whole entry): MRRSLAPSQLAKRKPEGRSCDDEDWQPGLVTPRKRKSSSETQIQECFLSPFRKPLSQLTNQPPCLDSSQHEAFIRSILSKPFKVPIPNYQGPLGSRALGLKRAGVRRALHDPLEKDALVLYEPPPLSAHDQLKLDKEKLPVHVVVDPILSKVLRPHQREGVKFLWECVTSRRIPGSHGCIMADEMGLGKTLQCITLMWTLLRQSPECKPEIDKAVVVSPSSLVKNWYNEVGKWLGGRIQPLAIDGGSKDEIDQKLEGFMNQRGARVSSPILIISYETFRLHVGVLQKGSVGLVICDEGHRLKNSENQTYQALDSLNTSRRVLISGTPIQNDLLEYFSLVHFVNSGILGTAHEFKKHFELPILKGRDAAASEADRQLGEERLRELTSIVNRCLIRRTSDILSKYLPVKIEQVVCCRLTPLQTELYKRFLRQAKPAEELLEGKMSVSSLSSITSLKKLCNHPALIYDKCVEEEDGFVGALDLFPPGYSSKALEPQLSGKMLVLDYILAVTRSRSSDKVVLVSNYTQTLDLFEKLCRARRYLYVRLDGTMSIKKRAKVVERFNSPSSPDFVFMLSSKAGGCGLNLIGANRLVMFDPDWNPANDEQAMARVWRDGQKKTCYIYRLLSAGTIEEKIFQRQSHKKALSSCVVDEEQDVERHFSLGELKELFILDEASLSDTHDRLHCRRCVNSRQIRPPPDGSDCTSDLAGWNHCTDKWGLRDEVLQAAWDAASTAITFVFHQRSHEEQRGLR
Sequence of Photoreceptor-specific nuclear receptor (Q9Y5X4 whole entry, the tested form may be a part): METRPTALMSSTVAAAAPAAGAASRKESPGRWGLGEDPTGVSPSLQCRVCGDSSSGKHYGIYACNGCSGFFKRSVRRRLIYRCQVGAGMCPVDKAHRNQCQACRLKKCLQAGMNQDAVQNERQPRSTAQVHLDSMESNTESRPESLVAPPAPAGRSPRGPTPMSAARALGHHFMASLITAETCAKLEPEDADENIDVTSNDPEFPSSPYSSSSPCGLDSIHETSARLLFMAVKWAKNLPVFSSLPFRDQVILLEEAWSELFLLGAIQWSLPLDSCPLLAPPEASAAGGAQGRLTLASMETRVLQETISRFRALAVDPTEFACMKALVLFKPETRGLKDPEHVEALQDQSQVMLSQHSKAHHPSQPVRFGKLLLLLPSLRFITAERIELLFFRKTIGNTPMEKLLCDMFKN

`COc1cccc(-c2nc(N3CCN(Cc4ccccc4)CC3)c3ccccc3n2)c1O`: the AC50 (commonly the concentration at which the activity in the assay is half-maximal) in test [1] is 100 µM (inactive).

As for `O=c1cc(N2CCN(c3ccccc3)CC2)[nH]c(=O)n1C1CCCCC1`, the AC50 was 15.8 µM (inconclusive) at Cytochrome P450 2C9, 3.16 µM (inconclusive) at Cytochrome P450 2C19 and 6.31 µM (inconclusive) on Cytochrome P450 3A4. For the same compound, the IC50 in test [2] was 0.511 µM (active).

`CCn1c(/C=C/c2cc(Br)ccc2O)nc2ccccc2c1=O`: the IC50 in [3] is 5.9 µM (active); in test [4], 12.5 µM (active).

Take `COc1ccc(C(=O)C2=C(O)C(=O)N(Cc3ccco3)C2c2cc(OC)ccc2OC)cc1` (configuration not stated): the IC50 at Beta-lactamase [5] is > 59.6 µM (inactive); on Beta-lactamase [6] it was > 59.6 µM (inactive); on Beta Lactamase [7], 12.8 µM (inactive); at Beta-lactamase [8], > 59.6 µM (inactive); at Beta Lactamase [9], 5.61 µM (active).

(Values after ChEMBL document CHEMBL1201862, “PubChem BioAssay data set” (2004).)
